The target of one test is T1, human androgen receptor (Homo sapiens, UniProt P10275).
T1 construct: expressed in transfected cells; host or cells: HEK293
T1 sequence (P10275 1-920): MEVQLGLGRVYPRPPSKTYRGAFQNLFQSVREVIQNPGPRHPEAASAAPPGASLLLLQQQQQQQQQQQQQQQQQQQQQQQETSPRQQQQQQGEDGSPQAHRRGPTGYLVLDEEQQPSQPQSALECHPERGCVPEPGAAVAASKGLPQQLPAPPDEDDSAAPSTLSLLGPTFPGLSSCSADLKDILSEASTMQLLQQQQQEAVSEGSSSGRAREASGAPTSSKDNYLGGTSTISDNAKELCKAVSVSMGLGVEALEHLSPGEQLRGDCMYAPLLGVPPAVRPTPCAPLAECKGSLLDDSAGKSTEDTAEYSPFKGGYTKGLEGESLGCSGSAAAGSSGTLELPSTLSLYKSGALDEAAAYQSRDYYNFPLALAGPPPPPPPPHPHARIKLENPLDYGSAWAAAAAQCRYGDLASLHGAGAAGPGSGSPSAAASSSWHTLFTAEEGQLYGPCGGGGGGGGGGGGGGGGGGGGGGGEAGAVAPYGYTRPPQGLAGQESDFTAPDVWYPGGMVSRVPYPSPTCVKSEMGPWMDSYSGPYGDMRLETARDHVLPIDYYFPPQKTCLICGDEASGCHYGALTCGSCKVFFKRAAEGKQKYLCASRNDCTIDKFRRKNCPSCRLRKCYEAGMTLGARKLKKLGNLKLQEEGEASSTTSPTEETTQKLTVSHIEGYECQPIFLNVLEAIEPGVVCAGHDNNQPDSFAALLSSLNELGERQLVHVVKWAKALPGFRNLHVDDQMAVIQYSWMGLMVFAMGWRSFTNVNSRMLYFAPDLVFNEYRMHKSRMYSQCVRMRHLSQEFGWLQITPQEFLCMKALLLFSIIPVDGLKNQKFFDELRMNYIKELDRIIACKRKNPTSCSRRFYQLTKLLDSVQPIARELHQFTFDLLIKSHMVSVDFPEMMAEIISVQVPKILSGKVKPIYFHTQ
Description: Reporter assay of an androgen receptor responsive sequence (luciferase, transiently transfected HEK293 cells). The note with it: 24 hours incubation, relative to activity of 100 nM DHT, read-out: AR transcriptive activity (pEC50) (converted). The test is classed as cell-based. The gist of the method:
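Agonism scored as pEC50, fitted by 4-parameter curve against the response to 100 nM DHT, from dual-luciferase readout after 24 h compound treatment. Cells were HEK293 co-transfected (3 h) with human AR expression vector, androgen-responsive firefly reporter and Renilla control, in charcoal-stripped serum.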

Test [1] deals with T2, androgen receptor (AR-LBD) (Rattus norvegicus, UniProt P15207).
T2 construct: 5 μL of 2×AR-LBD/Fluoromone AL Red Complex contained in the kit; purchased Invitrogen
T2 sequence (P15207 651-882 limits assumed): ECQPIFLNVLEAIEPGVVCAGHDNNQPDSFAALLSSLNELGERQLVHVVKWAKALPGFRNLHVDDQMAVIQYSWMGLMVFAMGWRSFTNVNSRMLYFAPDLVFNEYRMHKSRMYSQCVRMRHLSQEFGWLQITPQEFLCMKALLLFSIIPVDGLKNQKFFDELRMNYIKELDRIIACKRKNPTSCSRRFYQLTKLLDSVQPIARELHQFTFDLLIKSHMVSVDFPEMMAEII
Description: Evaluation of androgen receptor affinity (PolarScreen Androgen Receptor Competitor Assay Kit, Red; fluorescence polarization). The note with it: 22° C. for 5 hours, relative to binding rate of 1 μM DHT, read-out: AR affinity (pEC50) (converted). Summed up: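 Test compound and the 2× AR-LBD/Fluoromone AL Red complex were combined in duplicate wells. After reacting 5 h at 22° C, polarization was measured. pEC50 was derived by 4-parameter fitting, normalizing to binding obtained with 1 μM dihydrotestosterone.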

Here are results for 22 molecules from patent US10689354B2, “Aminoazole derivative” (Teijin Pharma Limited, priority 2015, dated 2020).

For the molecule `CS(=O)(=O)NC(=O)c1nc(N(Cc2ccccc2)c2ccc(C#N)cc2)sc1C1CC1` [Compound 660, 2-(N-benzyl-4-cyano-anilino)-5-cyclopropyl-N-methylsulfonyl-thiazole-4-carboxamide], the results for the EC50 (at human androgen receptor; in test [1]) were over 10000 nM and 79.4 nM, respectively.
Taken in the same sequence, the figures for `CS(=O)(=O)NC(=O)c1nc(N(Cc2ccc(Cl)cc2)c2ccc(C#N)cc2)sc1C1CC1` [Compound 661, 2-[N-[(4-chlorophenyl)methyl]-4-cyano-anilino]-5-cyclopropyl-N-methylsulfonyl-thiazole-4-carboxamide] were 501 nM and 15.8 nM.
Taken in the same sequence, the figures for `CS(=O)(=O)NC(=O)c1nc(N(Cc2ccc(OC(F)F)cc2)c2ccc(C#N)cc2)sc1C1CC1` [Compound 662, 2-[4-cyano-N-[[4-(difluoromethoxy)phenyl]methyl]anilino]-5-cyclopropyl-N-methylsulfonyl-thiazole-4-carboxamide] were 5010 nM and 20 nM.
As to `COCCCS(=O)(=O)NC(=O)c1nc(N(Cc2ccc(C(F)(F)F)nc2)c2ccc(C#N)cc2)sc1C1CC1` [Compound 663, 2-[4-cyano-N-[[6-(trifluoromethyl)-3-pyridyl]methyl]anilino]-5-cyclopropyl-N-(3-methoxypropylsulfonyl)thiazole-4-carboxamide], the EC50 at human androgen receptor is over 10000 nM; in test [1] it was 251 nM.
`COCCCS(=O)(=O)NC(=O)c1nc(N(Cc2ccccc2)c2ccc(C#N)cc2)sc1C1CC1` [Compound 664, 2-(N-benzyl-4-cyano-anilino)-5-cyclopropyl-N-(3-methoxypropylsulfonyl)thiazole-4-carboxamide]: the EC50 is over 10000 nM at human androgen receptor and 158 nM in test [1].
On the same counts, the results for `COCCCS(=O)(=O)NC(=O)c1nc(N(Cc2ccc(Cl)cc2)c2ccc(C#N)cc2)sc1C1CC1` [Compound 665, 2-[N-[(4-chlorophenyl)methyl]-4-cyano-anilino]-5-cyclopropyl-N-(3-methoxypropylsulfonyl)thiazole-4-carboxamide] are over 10000 nM and 20 nM.
In the case of `COCCCS(=O)(=O)NC(=O)c1nc(N(Cc2ccc(OC(F)F)cc2)c2ccc(C#N)cc2)sc1C1CC1` [Compound 666, 2-[4-cyano-N-[[4-(difluoromethoxy)phenyl]methyl]anilino]-5-cyclopropyl-N-(3-methoxypropylsulfonyl)thiazole-4-carboxamide], the EC50 at human androgen receptor was over 10000 nM; in test [1], 39.8 nM.
For `Cc1sc(N(CCc2cccc(Cl)c2)Cc2ccccc2)nc1C(=O)NS(C)(=O)=O` [Compound 671, 2-[benzyl-[2-(3-chlorophenyl)ethyl]amino]-5-methyl-N-methylsulfonyl-thiazole-4-carboxamide], the EC50 on human androgen receptor was 1580 nM; in test [1] it was 50.1 nM.
Taken in the same sequence, the figures for `Cc1sc(N(CCc2cccc(C#N)c2)Cc2ccccc2)nc1C(=O)NS(C)(=O)=O` [Compound 672, 2-[benzyl-[2-(3-cyanophenyl)ethyl]amino]-5-methyl-N-methylsulfonyl-thiazole-4-carboxamide] were 1260 nM and 251 nM.
Taken in the same sequence, the figures for `Cc1sc(N(Cc2ccc(Cl)cc2)Cc2csc3cc(C(F)(F)F)ccc23)nc1C(=O)NS(C)(=O)=O` [Compound 677, 2-[(4-chlorophenyl)methyl-[[6-(trifluoromethyl)benzothiophen-3-yl]methyl]amino]-5-methyl-N-methylsulfonyl-thiazole-4-carboxamide] were over 10000 nM and over 2000 nM.
Turning to `COc1ccc(CCN(Cc2ccccc2)c2nc(C(=O)NS(C)(=O)=O)c(C)s2)cc1` [Compound 678, 2-[benzyl-[2-(4-methoxyphenyl)ethyl]amino]-5-methyl-N-methylsulfonyl-thiazole-4-carboxamide], the EC50 on human androgen receptor was 1580 nM; in test [1] it was 50.1 nM.
Take `Cc1sc(N(CCC2CCCC2)Cc2ccccc2)nc1C(=O)NS(C)(=O)=O` [Compound 683, 2-[benzyl(2-cyclopentylethyl)amino]-5-methyl-N-methylsulfonyl-thiazole-4-carboxamide]: the EC50 on human androgen receptor is over 10000 nM; in test [1], 100 nM.
With `Cc1sc(N(CCc2ccc(OC(F)(F)F)cc2)Cc2ccccc2)nc1C(=O)NS(C)(=O)=O` [Compound 684, 2-[benzyl-[2-[4-(trifluoromethoxy)phenyl]ethyl]amino]-5-methyl-N-methylsulfonyl-thiazole-4-carboxamide], the EC50 at human androgen receptor is 251 nM; in test [1] it was 39.8 nM.
On the same counts, the results for `Cc1sc(N(CCc2cccc(F)c2)Cc2ccccc2)nc1C(=O)NS(C)(=O)=O` [Compound 685, 2-[benzyl-[2-(3-fluorophenyl)ethyl]amino]-5-methyl-N-methylsulfonyl-thiazole-4-carboxamide] are 316 nM and 50.1 nM.
On the same counts, the results for `Cc1sc(N(CCc2ccc(Cl)cc2)Cc2ccc(Cl)cc2)nc1C(=O)NS(C)(=O)=O` [Compound 692, 2-[2-(4-chlorophenyl)ethyl-[(4-chlorophenyl)methyl]amino]-5-methyl-N-methylsulfonyl-thiazole-4-carboxamide] are 79.4 nM and 20 nM.
Regarding `CCS(=O)(=O)NC(=O)c1nc(N(CCc2ccc(Cl)cc2)Cc2ccc(Cl)cc2)sc1C` [Compound 693, 2-[2-(4-chlorophenyl)ethyl-[(4-chlorophenyl)methyl]amino]-N-ethylsulfonyl-5-methyl-thiazole-4-carboxamide], the figures for the EC50 (at human androgen receptor; in test [1]) were 200 nM and 31.6 nM, respectively.
As to `Cc1sc(N(CCc2ccc(Cl)cc2)Cc2ccc(Cl)cc2)nc1C(=O)NS(=O)(=O)C1CC1` [Compound 694, 2-[2-(4-chlorophenyl)ethyl-[(4-chlorophenyl)methyl]amino]-N-cyclopropylsulfonyl-5-methyl-thiazole-4-carboxamide], the results for the EC50 (on human androgen receptor; in test [1]) were 3160 nM and 63.1 nM, respectively.
`Cc1sc(N(CCc2ccc(Cl)cc2)Cc2ccc(Cl)cc2)nc1C(=O)NS(=O)(=O)Cc1cccnc1` [Compound 695, 2-[2-(4-chlorophenyl)ethyl-[(4-chlorophenyl)methyl]amino]-5-methyl-N-(3-pyridylmethylsulfonyl)thiazole-4-carboxamide]: the EC50 was 63.1 nM at human androgen receptor and 25.1 nM in test [1].
For the molecule `Cc1sc(N(CCc2ccc(Cl)cc2)Cc2ccc(Cl)cc2)nc1C(=O)NS(=O)(=O)C(F)(F)F` [Compound 696, 2-[2-(4-chlorophenyl)ethyl-[(4-chlorophenyl)methyl]amino]-5-methyl-N-(trifluoromethylsulfonyl)thiazole-4-carboxamide], the EC50 on human androgen receptor is 631 nM; in test [1], 200 nM.
Consider `Cc1sc(N(CCc2ccc(Cl)cc2)CC2CCCCC2)nc1C(=O)NS(C)(=O)=O` [Compound 697, 2-[2-(4-chlorophenyl)ethyl-(cyclohexylmethyl)amino]-5-methyl-N-methylsulfonyl-thiazole-4-carboxamide], for which the EC50 was over 10000 nM at human androgen receptor and 251 nM in test [1].
On the same counts, the results for `Cc1sc(N(CCc2ccc(Cl)cc2)CC2CCCCC2)nc1C(=O)NS(=O)(=O)Cc1cccnc1` [Compound 699, 2-[2-(4-chlorophenyl)ethyl-(cyclohexylmethyl)amino]-5-methyl-N-(3-pyridylmethylsulfonyl)thiazole-4-carboxamide] are over 10000 nM and 63.1 nM.
Take `CCS(=O)(=O)NC(=O)c1nc(N(CCc2ccc(Cl)cc2)Cc2ccc(OC(F)(F)F)cc2)sc1C` [Compound 701, 2-[2-(4-chlorophenyl)ethyl-[[4-(trifluoromethoxy)phenyl]methyl]amino]-N-ethylsulfonyl-5-methyl-thiazole-4-carboxamide]: the EC50 on human androgen receptor is 1260 nM; in test [1] it was 63.1 nM.
